Legend:
[1] = molecular target: T1, Mitogen-activated protein kinase 1 (Homo sapiens, UniProt P28482); test: Binding affinity to activated Erk2 (unknown origin) by TdF assay
[2] = molecular target: T1, Mitogen-activated protein kinase 1; test: Binding affinity to non-phosphorylated Erk2 (unknown origin) by TdF assay
[3] = molecular target: T1, Mitogen-activated protein kinase 1; test: ATP competitive inhibition of activated Erk2 (unknown origin) by biochemical assay
[4] = molecular target: T1, Mitogen-activated protein kinase 1; test: Inhibition of activated Erk2 (unknown origin) by biochemical assay
[5] = molecular target: T1, Mitogen-activated protein kinase 1; test: Inhibition of non-activated Erk2 (unknown origin) using activating Mek1 and peptide substrate by coupled Erk2 assay

T1 sequence (P28482 whole entry): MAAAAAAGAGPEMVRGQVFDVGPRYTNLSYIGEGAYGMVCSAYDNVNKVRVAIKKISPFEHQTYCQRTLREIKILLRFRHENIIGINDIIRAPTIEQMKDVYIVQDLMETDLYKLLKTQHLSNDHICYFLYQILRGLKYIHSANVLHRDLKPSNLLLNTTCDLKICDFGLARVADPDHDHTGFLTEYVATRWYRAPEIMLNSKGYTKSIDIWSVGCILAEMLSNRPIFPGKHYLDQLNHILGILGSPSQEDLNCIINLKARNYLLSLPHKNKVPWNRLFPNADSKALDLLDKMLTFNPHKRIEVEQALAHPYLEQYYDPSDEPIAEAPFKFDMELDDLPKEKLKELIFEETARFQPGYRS

Row | SMILES | IC50 ([4]; read-out: IC50) [nM] | IC50 [5] [nM] | other results
1 | CC(=O)c1ccc(N2CCN(C(=O)CN3CCC(C(=O)Nc4ccc(O)cc4)C3)CC2)cc1 (stereo not drawn) |  |  | Kd [1]: 1900 nM; Kd [2]: 1060 nM; IC50 [3]: 15200 nM
2 | O=C(Nc1ccc(O)c(Cl)c1)[C@@H]1CCN(CC(=O)N2CCN(c3ccc(-c4cnco4)cc3)CC2)C1 | 12000 | 1000 | 
3 | CCc1cnc(-c2ccc(N3CCN(C(=O)CN4CC[C@@H](C(=O)Nc5ccc(O)c(Cl)c5)C4)CC3)cc2)nc1 | 100 | 5 | 
4 | COc1ncc(-c2ccc(N3CCN(C(=O)CN4CC[C@@H](C(=O)Nc5ccc(O)c(Cl)c5)C4)CC3)cc2)cn1 | 2670 | 71 | 
5 | O=C(Nc1ccc(O)c(Cl)c1)[C@@H]1CCN(CC(=O)N2CCN(c3ccc(-c4cnccn4)cc3)CC2)C1 | 130 | 14 | 
6 | O=C(Nc1ccc(O)c(Cl)c1)[C@@H]1CCN(CC(=O)N2CCN(c3ccc(-c4nccs4)cc3)CC2)C1 | 9340 | 300 | 
7 | O=C(Nc1ccc(O)c(C(F)(F)F)c1)[C@@H]1CCN(CC(=O)N2CCN(c3ccc(-c4ncccn4)cc3)CC2)C1 | 100 | 5 | 
8 | O=C(Nc1ccc(O)c(C2CC2)c1)[C@@H]1CCN(CC(=O)N2CCN(c3ccc(-c4ncccn4)cc3)CC2)C1 | 1760 | 36 | 
9 | CC(C)c1cc(NC(=O)[C@@H]2CCN(CC(=O)N3CCN(c4ccc(-c5ncccn5)cc4)CC3)C2)ccc1O | 1800 | 73 | 
10 | O=C(Nc1ccc(O)c(F)c1)[C@@H]1CCN(CC(=O)N2CCN(c3ccc(-c4ncccn4)cc3)CC2)C1 | 2670 | 71 | 
11 | CC(=O)c1ccc(N2CCN(C(=O)CN3CC[C@@H](C(=O)Nc4ccc(O)cc4)C3)CC2)cc1 | 6000 |  | 

The next lines start with results.

Row | IC50 ([4]; read-out: IC50) [nM] | IC50 [5] [nM] | SMILES | other results
12 | 100000 | 19000 | O=C(Nc1ccc(O)c(Cl)c1)[C@@H]1CCN(CC(=O)N2CCN(c3ccc(-c4ccc(F)cc4)cc3)CC2)C1 | 
13 |  | 2200 | O=C(Nc1ccc(O)c(Cl)c1)[C@@H]1CCN(CC(=O)N2CCN(c3ccc(-c4cccc(F)c4)cc3)CC2)C1 | IC50 [4]: Not Active
14 |  | 1200 | O=C(Nc1ccc(O)c(Cl)c1)[C@@H]1CCN(CC(=O)N2CCN(c3ccc(-c4ccccc4F)cc3)CC2)C1 | IC50 [4]: Not Active
15 | 50000 | 2300 | COc1ccc(-c2ccc(N3CCN(C(=O)CN4CC[C@@H](C(=O)Nc5ccc(O)c(Cl)c5)C4)CC3)cc2)cc1 | 
16 | 20000 | 2500 | O=C(Nc1ccc(O)c(Cl)c1)[C@@H]1CCN(CC(=O)N2CCN(c3ccc(-c4cccs4)cc3)CC2)C1 | 
17 | 410 | 20 | O=C(Nc1ccc(O)c(Cl)c1)[C@@H]1CCN(CC(=O)N2CCN(c3ccc(-c4ncccn4)cc3)CC2)C1 | 
18 | 1760 | 36 | O=C(Nc1ccc(O)c(Cl)c1)[C@@H]1CCN(CC(=O)N2CCN(c3ccc(-c4ncc(F)cn4)cc3)CC2)C1 | 
19 | 1800 | 73 | O=C(Nc1ccc(O)c(Cl)c1)[C@@H]1CCN(CC(=O)N2CCN(c3ccc(-c4cncnc4)cc3)CC2)C1 | 
